Measurements taken from ChEMBL document CHEMBL3232798, “Synthesis and antimycobacterial activities of some new thiazolylhydrazone derivatives” (Bioorg Med Chem Lett, 2014).
≈ marks a conversion by molar mass, not a printed value.

Legend:
[1] = test system: Mycobacterium tuberculosis; experiment: Antimycobacterial activity against Mycobacterium tuberculosis H37Rv by microplate alamar blue assay; format: functional
[2] = Cytotoxicity against human THP1 cells at 50 ug/ml by MTT assay; format: cell-based; conditions: THP-1 cells, read-out: INH

SMILES	MIC [1]	cytotoxicity at 50 ug/ml [2]
C(=N\Nc1nc(-c2ccccc2)cs1)/c1ccc(-n2ccnc2)cc1	72.5 µM (≈ 25 µg/mL)	21.8%
Fc1ccc(-c2csc(N/N=C/c3ccc(-n4ccnc4)cc3)n2)cc1	4.3 µM (≈ 1.56 µg/mL)	18.7%
Clc1ccc(-c2csc(N/N=C/c3ccc(-n4ccnc4)cc3)n2)cc1	8.22 µM (≈ 3.12 µg/mL)	32.1%
Brc1ccc(-c2csc(N/N=C/c3ccc(-n4ccnc4)cc3)n2)cc1	59.1 µM (≈ 25.1 µg/mL)	36.8%
Clc1ccc(-c2csc(N/N=C/c3ccc(-n4ccnc4)cc3)n2)c(Cl)c1	15.1 µM (≈ 6.26 µg/mL)	28.8%
Cc1ccc(-c2csc(N/N=C/c3ccc(-n4ccnc4)cc3)n2)cc1	33 µM (≈ 11.9 µg/mL)	36%
COc1ccc(-c2csc(N/N=C/c3ccc(-n4ccnc4)cc3)n2)cc1	4.16 µM (≈ 1.56 µg/mL)	26.8%
O=[N+]([O-])c1ccc(-c2csc(N/N=C/c3ccc(-n4ccnc4)cc3)n2)cc1	1.03 µM (≈ 0.402 µg/mL)	16.4%
C(=N\Nc1nc(-c2ccccc2)cs1)/c1ccc(-n2cncn2)cc1	72.2 µM (≈ 25 µg/mL)	28.4%
Fc1ccc(-c2csc(N/N=C/c3ccc(-n4cncn4)cc3)n2)cc1	4.29 µM (≈ 1.56 µg/mL)	35.9%
Clc1ccc(-c2csc(N/N=C/c3ccc(-n4cncn4)cc3)n2)cc1	8.2 µM (≈ 3.12 µg/mL)	28.4%
Brc1ccc(-c2csc(N/N=C/c3ccc(-n4cncn4)cc3)n2)cc1	29.5 µM (≈ 12.5 µg/mL)	32.6%
Clc1ccc(-c2csc(N/N=C/c3ccc(-n4cncn4)cc3)n2)c(Cl)c1	3.76 µM (≈ 1.56 µg/mL)	8.9%
Cc1ccc(-c2csc(N/N=C/c3ccc(-n4cncn4)cc3)n2)cc1	4.33 µM (≈ 1.56 µg/mL)	13.6%
COc1ccc(-c2csc(N/N=C/c3ccc(-n4cncn4)cc3)n2)cc1	16.6 µM (≈ 6.26 µg/mL)	23%
O=[N+]([O-])c1ccc(-c2csc(N/N=C/c3ccc(-n4cncn4)cc3)n2)cc1	3.99 µM (≈ 1.56 µg/mL)	12.9%
CC[C@@H](CO)NCCN[C@@H](CC)CO [ETHAMBUTOL]	7.65 µM (≈ 1.56 µg/mL)	
NNC(=O)c1ccncc1 [ISONIAZID]	0.36 µM (≈ 0.0494 µg/mL)	
CO[C@H]1/C=C/O[C@@]2(C)Oc3c(C)c(O)c4c(O)c(c(/C=N/N5CCN(C)CC5)c(O)c4c3C2=O)NC(=O)/C(C)=C\C=C\[C@H](C)[C@H](O)[C@@H](C)[C@@H](O)[C@@H](C)[C@H](OC(C)=O)[C@@H]1C [RIFAMPIN]	0.12 µM (≈ 0.0988 µg/mL)	
